The Ki is a dissociation constant, usually derived from enzyme kinetics or from competition with a known ligand.

Read-outs that look alike come from different tables or passages of the source.

These results are taken from US12528812B2 (Genentech, Inc., priority 2020, dated 2026).

Test [1] concerns the target T1, recombinant human JAK1 kinase domain protein (Residues 854-1154) (Homo sapiens, UniProt P23458).
T1 construct: human JAK1 kinase domain protein (Residues 854-1154); purchased Proteros Biostructures GmbH (Martinsried, Germany); host or cells: insect cells
The test is described as follows: JAK1 biochemical assay (LabChip mobility shift, Ki). The conditions noted are these: read-out: Biochem JAK1 Ki.

Test [2] addresses Recombinant human JAK2 kinase domain protein (Residues 812-1132) (Homo sapiens, UniProt O60674). In words: JAK2 biochemical assay (LabChip mobility shift, Ki). The settings on record: Biochem JAK2 Ki.
Test [3] concerns IL-13-stimulated STAT6 phosphorylation in human lung bronchial epithelial BEAS-2B cell line. In words: P-STAT6 BEAS-2B + IL-13 cell assay. Format: cell-based. The conditions noted are these: Homo sapiens, BEAS-2B, BEAS2B cells, IL13 stimulation; read-out: Cellular JAK1 PSTAT6 BEAS2B + IL13. In outline: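 Phospho-STAT6 (Tyr641) was quantified in lysates by MSD electrochemiluminescence after human IL-13 challenge (250 ng/mL stock, 15 min, 37 °C). Before that, BEAS-2B cells cultured 48 h had 1 h compound exposure over 10 concentrations. Percent of control was fitted to a four-parameter logistic model to give IC50.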

Test [4] deals with EPO-stimulated P-STAT5 in TF-1 human erythroleukemia cells. In words: P-STAT5 TF-1 + EPO assay (JAK2 pathway). It is filed as cell-based. The conditions noted are these: Homo sapiens, TF-1, TF-1 cells, EPO stimulation; read-out: Cellular JAK2 PSTAT5 TF-1 + EPO. How it is done: (§1) TF-1 human erythroleukemia cells (ATCC′; Manassas, VA; Catalog No. CRL-2003™) were grown in Roswell Park Memorial Institute (RPMI) medium supplemented with 10% heat-inactivated fetal bovine serum (FBS), 2 ng/mL granulocyte-macrophage colony-stimulating factor, 1× non-essential amino acids (NEAA), and 1 mM sodium pyruvate. The day before the assay, the cultures were transferred to Opti-MEM™, 1×NEAA, 1 mM sodium pyruvate, and 0.5% charcoal-stripped FBS (starve medium). Inhibitor stock solutions (5 mM in DMSO) were serially diluted 1:2 in DMSO to generate a 10-point concentration titration (at 500× test concentration), which was further diluted by a 50-fold dilution in Assay Medium (RPMI containing 1×NEAA and 1 mM sodium pyruvate) to generate a 10× concentration titration (in 2% DMSO). The cells (300,000 cells/well in 35 μL of Assay Medium) were seeded in 384-well Greiner plates. Diluted inhibitor at 10× concentration (5 μL) was added to the cells and the plates were incubated for 30 minutes at 37° C. in a humidified incubator. Cells were stimulated with the human recombinant cytokine at the respective EC90 concentrations, as previously determined for each individual lot. For the phosphorylated signal transducer and activator of transcription 6 (P-STAT6) TF-1+Interleukin-13 (IL-13) assay, 10 μL of 250 ng/mL IL-13 (R&D Systems; Minneapolis, MN) was added to the cells, which were then incubated for 10 minutes at 37° C. For the P-STAT5 TF-1+Erythropoietin (EPO) assay, 10 μL of 110 IU/mL EPO (Gibco Life Technologies, Catalog No. PHC2054) was added to the cells, which were then incubated for […] at 37° C. For both assays, the incubation was followed by addition to the cells of 5 μL of ice-cold 10× cell lysis buffer (Cell Signaling Technologies; Danvers, MA; Catalog No. 9803S) containing 1 mM phenylmethylsulfonyl fluoride (PMSF). Assay plates were frozen at −80° C. for a minimum of 1 hour. In the IL-13 assay, P-STAT6 was measured by coating goat anti-rabbit (GAR) plates (Meso Scale Discovery [MSD]; Rockville, MD; Catalog No. MSD L21RA-1) with rabbit anti-human total STAT6 antibody (Cell Signaling Technologies; Catalog No. 9362S), incubating the cell lysates in the coated plates overnight at 4° C., and then detecting with mouse anti-P-STAT6 (Tyr641) Clone 16E12 antibody (MilliporeSigma; Burlington, MA; Catalog No. 05-590, custom labeled by MSD with SULFO-tag) using standard MSD plate processing, washing, and detection protocols. In the EPO assay, P-STAT5 was detected using the phospho-STAT5a,b Whole Cell Lysate Kit (MSD; Catalog No. K150IGD-1). The electrochemiluminescence (ECL) signal of wells was read on the MESO SECTOR 5600 (MSD) reader.
(§2) Data analysis was performed by subtracting the negative control (cytokine stimulated and 20 μM control inhibitor-treated cells) mean ECL value from the ECL value of all wells, determining percent of control for test compound well ECL values relative to the positive control (cytokine stimulated and DMSO-treated cells) mean ECL value, and determining the IC50 for test compounds with a four-parameter logistic fit model as shown in Equation 4.

Test [5] concerns IL-13-stimulated P-STAT6 in TF-1 human erythroleukemia cells. In words: P-STAT6 TF-1 + IL-13 assay (JAK1 pathway). The settings on record: IL13 stimulation, read-out: Cellular JAK1 PSTAT6 TF-1 + IL13. Format: cell-based. The protocol:
as §1, §2

Chain of Recombinant human JAK2 kinase domain protein (Residues 812-1132) (O60674 812-1132): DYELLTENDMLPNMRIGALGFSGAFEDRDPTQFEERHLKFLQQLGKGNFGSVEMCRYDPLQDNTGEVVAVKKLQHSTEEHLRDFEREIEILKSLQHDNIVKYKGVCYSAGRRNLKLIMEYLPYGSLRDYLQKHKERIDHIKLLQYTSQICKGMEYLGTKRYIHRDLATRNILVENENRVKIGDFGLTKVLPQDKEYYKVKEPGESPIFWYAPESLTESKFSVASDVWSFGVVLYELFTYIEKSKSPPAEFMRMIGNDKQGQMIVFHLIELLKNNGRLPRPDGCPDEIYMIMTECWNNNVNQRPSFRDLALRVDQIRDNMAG
T1 sequence (P23458 854-1154): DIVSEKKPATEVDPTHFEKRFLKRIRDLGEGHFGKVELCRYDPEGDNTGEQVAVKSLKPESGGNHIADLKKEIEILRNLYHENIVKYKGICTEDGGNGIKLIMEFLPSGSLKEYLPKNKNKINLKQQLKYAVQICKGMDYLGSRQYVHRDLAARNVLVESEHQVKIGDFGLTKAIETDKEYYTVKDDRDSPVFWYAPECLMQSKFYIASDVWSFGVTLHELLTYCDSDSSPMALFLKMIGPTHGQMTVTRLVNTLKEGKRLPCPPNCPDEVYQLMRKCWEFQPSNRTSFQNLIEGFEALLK

Regarding `Cn1ccc(Oc2ccc(OC(F)F)c(-c3nn(C)cc3NC(=O)c3cnn4cccnc34)c2)n1` [Example 143, N-[3-[2-(difluoromethoxy)-5-(1-methylpyrazol-3-yl)oxy-phenyl]-1-methyl-pyrazol-4-yl]pyrazolo[1,5-a]pyrimidine-3-carboxamide], the Ki stood at 0.69 nM in test [1] and 0.36 nM in test [2]. Besides, the IC50 in test [3] was 26 nM; in test [4] it was 23 nM; in test [5] (Homo sapiens, TF-1, TF-1 cells) it was 3 nM.
The matching figures for `Cn1cc(NC(=O)c2cnn3cccnc23)c(-c2cc(Oc3cnn(CCO)c3)ccc2OC(F)F)n1` [Example 113, N-[3-[2-(difluoromethoxy)-5-[1-(2-hydroxyethyl)pyrazol-4-yl]oxy-phenyl]-1-methyl-pyrazol-4-yl]pyrazolo[1,5-a]pyrimidine-3-carboxamide]: 0.3 nM, 0.14 nM, 20 nM, 13 nM and 7 nM.
For `CN1CCC(n2cc(Oc3ccc(OC(F)F)c(-c4nn(C)cc4NC(=O)c4cnn5cccnc45)c3)cn2)C(O)C1` (stereo not drawn) [Example 186, N-[3-[2-(difluoromethoxy)-5-[1-(3-hydroxy-1-methyl-4-piperidyl)pyrazol-4-yl]oxy-phenyl]-1-methyl-pyrazol-4-yl]pyrazolo[1,5-a]pyrimidine-3-carboxamide], in that order: 0.76 nM, 0.39 nM, 48 nM, 58 nM and 22 nM.
For `CN1CC(O)(c2cc(F)cc(Oc3ccc(OC(F)F)c(-c4nn(C)cc4NC(=O)c4cnn5cccnc45)c3)c2)C1` [Example 96, N-[3-[2-(difluoromethoxy)-5-[3-fluoro-5-(3-hydroxy-1-methyl-azetidin-3-yl)phenoxy]phenyl]-1-methyl-pyrazol-4-yl]pyrazolo[1,5-a]pyrimidine-3-carboxamide], in that order: 0.25 nM, 0.26 nM, 13 nM, 3 nM and 5.2 nM.
Take `CN1CC(O)C(n2cc(Oc3ccc(OC(F)F)c(-c4nn(C)cc4NC(=O)c4cnn5cccnc45)c3)cn2)C1` (stereo not drawn) [Example 178, N-[3-[2-(difluoromethoxy)-5-[1-(4-hydroxy-l-methyl-pyrrolidin-3-yl)pyrazol-4-yl]oxy-phenyl]-1-methyl-pyrazol-4-yl]pyrazolo[1,5-a]pyrimidine-3-carboxamide]: the Ki in test [1] came to 0.29 nM; in test [2], 0.21 nM. Besides, the results for the IC50 in test [3], in test [4] and in test [5] (TF-1 cells) were 32 nM, 49 nM and 26 nM, respectively.
Regarding `CN1CC(O)(Cn2cc(Oc3ccc(OC(F)F)c(-c4nn(C)cc4NC(=O)c4cnn5cccnc45)c3)cn2)C1` [Example 128, N-[3-[2-(difluoromethoxy)-5-[1-[(3-hydroxy-l-methyl-azetidin-3-yl)methyl]pyrazol-4-yl]oxy-phenyl]-1-methyl-pyrazol-4-yl]pyrazolo[1,5-a]pyrimidine-3-carboxamide], the Ki in test [1] amounted to 0.52 nM; in test [2], 0.41 nM. Also, the IC50 worked out at 30 nM in test [3]; 52 nM in test [4]; 51 nM in test [5] (Homo sapiens, TF-1, TF-1 cells).
Consider `Cn1cc(Oc2ccc(OC(F)F)c(-c3nn(C)cc3NC(=O)c3cnn4cccnc34)c2)cn1` [Example 59, N-[3-[2-(difluoromethoxy)-5-(1-methylpyrazol-4-yl)oxy-phenyl]-1-methyl-pyrazol-4-yl]pyrazolo[1,5-a]pyrimidine-3-carboxamide], for which the Ki worked out at 0.31 nM in test [1] and 0.18 nM in test [2]. Further, the IC50 in test [3] amounted to 13 nM; in test [4] it was 7.3 nM; in test [5] (Homo sapiens, TF-1, TF-1 cells), 4.6 nM.
For `CN1CC(O)(c2cccc(Oc3ccc(OC(F)F)c(-c4nn(C)cc4NC(=O)c4cnn5cccnc45)c3)n2)C1` [Example 190, N-[3-[2-(difluoromethoxy)-5-[[6-(3-hydroxy-l-methyl-azetidin-3-yl)-2-pyridyl]oxy]phenyl]-1-methyl-pyrazol-4-yl]pyrazolo[1,5-a]pyrimidine-3-carboxamide], in that order: 1.4 nM, 1 nM, 38 nM, 130 nM and 180 nM.
The matching figures for `CN(C)Cc1cncc(Oc2ccc(OC(F)F)c(-c3nn(C)cc3NC(=O)c3cnn4cccnc34)c2)c1` [Example 133, N-[3-[2-(difluoromethoxy)-5-[[5-[(dimethylamino)methyl]-3-pyridyl]oxy]phenyl]-1-methyl-pyrazol-4-yl]pyrazolo[1,5-a]pyrimidine-3-carboxamide]: 1.1 nM, 1.2 nM, 62 nM, 24 nM and 13 nM.
The matching figures for `Cn1cc(NC(=O)c2cnn3cccnc23)c(-c2cc(Oc3cnn(S(C)(=O)=O)c3)ccc2OC(F)F)n1` [Example 195, N-[3-[2-(difluoromethoxy)-5-(1-methylsulfonylpyrazol-4-yl)oxy-phenyl]-1-methyl-pyrazol-4-yl]pyrazolo[1,5-a]pyrimidine-3-carboxamide]: 0.38 nM, 0.26 nM, 13 nM, 9.7 nM and 4.1 nM.
Consider `CC(=O)n1cc(Oc2ccc(OC(F)F)c(-c3nn(C)cc3NC(=O)c3cnn4cccnc34)c2)cn1` [Example 192, N-[3-[5-(1-acetylpyrazol-4-yl)oxy-2-(difluoromethoxy)phenyl]-1-methyl-pyrazol-4-yl]pyrazolo[1,5-a]pyrimidine-3-carboxamide], for which the Ki in test [1] was found to be 0.28 nM; in test [2], 0.2 nM. Moreover, the IC50 in test [3] turned out to be 9.3 nM; in test [4] it was 2.1 nM; in test [5] (Homo sapiens, TF-1, TF-1 cells), 3.3 nM.
The matching figures for `Cn1cc(NC(=O)c2cnn3cccnc23)c(-c2cc(Oc3cccnc3)ccc2OC(F)F)n1` [Example 2, N-[3-[2-(difluoromethoxy)-5-(3-pyridyloxy)phenyl]-1-methyl-pyrazol-4-yl]pyrazolo[1,5-a]pyrimidine-3-carboxamide]: 0.32 nM, 0.19 nM, 20 nM, 11 nM and 3.6 nM.
Consider `Cn1cc(NC(=O)c2cnn3cccnc23)c(-c2cc(Oc3cnn(C4CCNCC4O)c3)ccc2OC(F)F)n1` (stereo not drawn) [Example 182, N-[3-[2-(difluoromethoxy)-5-[1-(3-hydroxy-4-piperidyl)pyrazol-4-yl]oxy-phenyl]-1-methyl-pyrazol-4-yl]pyrazolo[1,5-a]pyrimidine-3-carboxamide], for which the values for the Ki in test [1] and in test [2] were 0.65 nM and 0.43 nM, respectively. In test [3], the IC50 turned out to be 160 nM.
